Test results reported in US5340589A, “Low solubility drug-coated bead compositions” (Sterling Winthrop Inc., priority 1993, dated 1994).

What was measured:
[1] = dog, in vivo, po
Method: Blood samples were taken at 0.25(tablet only), 0.5, 1, 2, 4, 6, 8, 10, 12 and 24 hours postmedication. The plasma concentration of (5α,17α)-1'-(methylsulfonyl)-1'-H-pregn-20-yno[3,2-c]pyrazol-17-ol was measured from each sample. The data were analyzed to determine the mean maximum concentration of (5α,17α)-1'-(methylsulfonyl)-1'-H-pregn-20-yno[3,2-c]pyrazol-17-ol reached (mean Cmax) and the mean area under the (5α,17α)-1'-(methylsulfonyl)-1'H-pregn-20-yno[3,2-c]pyrazol-17-ol concentration-time curve for the twenty-four hour period (mean AUC0-24).

[2] = in vivo, po; cited from earlier work

Row | Mean Cmax [1] | Mean AUC0-24 ([1]; 24 h) | Molecule | human bioavailability compared with conventional starch-lactose-talc-magnesium stearate dry powder capsule formulations [2]
1 | 0.23 (0.11) μg./ml. | 1.70 (1.64) μg.-hr./ml. | (5α,17α)-1'-(methylsulfonyl)-1'H-pregn-20-yno[3,2-c]pyrazol-17-ol [Comparative Example] | –
2 | – | – | C#C[C@]1(O)CC[C@H]2[C@@H]3CCC4=Cc5oncc5C[C@]4(C)[C@H]3CC[C@@]21C [Compound A, 17a-pregna-2,4-diene-20-yno[2,3-d]isoxazol-17-ol] | Improved human bioavailability
